Measured values published in PMC8429728, “TNK1 is a ubiquitin-binding and 14-3-3-regulated kinase that can be targeted to block tumor growth” (Nature Communications, 2021).
Like-named read-outs stand apart in the source and are kept apart here.

Tests used:
Experiment in all cases: biochemical
Parameters in all cases: Reaction Biology 371-kinase panel at Km ATP, per cent enzyme activity relative to DMSO, single dose in duplicate
ARK5/NUAK1 = ARK5/NUAK1 (Homo sapiens, UniProt O60285); conditions: duplicate measurements, Km ATP; read-out: % Enzyme Activity (relative to DMSO controls) / TP-0005801 (0.3µM) / Data 1
Method in brief: (§1)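 In vitro selectivity panel: 371 kinases, inhibitor at 300 nM; % activity vs DMSO; IC50 by variable-slope sigmoidal fit, bottom = 0.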

ASK1/MAP3K5 = ASK1/MAP3K5 (Homo sapiens, UniProt Q99683); conditions: duplicate measurements, Km ATP
Method in brief: as §1

BRSK1 = BRSK1 (Homo sapiens, UniProt Q8TDC3); conditions: duplicate measurements, Km ATP
Method in brief: as §1

CDK17/cyclin Y (PCTK2) = CDK17/cyclin Y (PCTK2) (Homo sapiens, UniProt Q00537); conditions: duplicate measurements, Km ATP; read-out: % Enzyme Activity (relative to DMSO controls) / TP-0005801 (0.3µM) / Data 1
Method in brief: as §1

CDK3/cyclin E = CDK3/cyclin E (Homo sapiens, UniProt Q00526); conditions: duplicate measurements, Km ATP
Method in brief: as §1

CDK9/CYCLIN K = CDK9/CYCLIN K (Homo sapiens, UniProt P50750); conditions: duplicate measurements, Km ATP
Chain of CDK9/CYCLIN K (P50750 whole entry): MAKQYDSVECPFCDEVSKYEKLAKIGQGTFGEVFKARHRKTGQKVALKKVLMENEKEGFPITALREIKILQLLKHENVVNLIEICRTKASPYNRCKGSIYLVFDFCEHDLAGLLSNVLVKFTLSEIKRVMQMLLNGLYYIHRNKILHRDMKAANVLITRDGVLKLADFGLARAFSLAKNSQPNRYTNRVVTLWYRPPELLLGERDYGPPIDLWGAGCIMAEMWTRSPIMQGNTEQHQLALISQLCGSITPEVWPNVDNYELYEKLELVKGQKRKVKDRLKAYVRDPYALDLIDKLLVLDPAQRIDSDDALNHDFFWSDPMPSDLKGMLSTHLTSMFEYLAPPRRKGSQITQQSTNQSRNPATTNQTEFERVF
Chain of CDK9/CYCLIN K (O75909 whole entry partner): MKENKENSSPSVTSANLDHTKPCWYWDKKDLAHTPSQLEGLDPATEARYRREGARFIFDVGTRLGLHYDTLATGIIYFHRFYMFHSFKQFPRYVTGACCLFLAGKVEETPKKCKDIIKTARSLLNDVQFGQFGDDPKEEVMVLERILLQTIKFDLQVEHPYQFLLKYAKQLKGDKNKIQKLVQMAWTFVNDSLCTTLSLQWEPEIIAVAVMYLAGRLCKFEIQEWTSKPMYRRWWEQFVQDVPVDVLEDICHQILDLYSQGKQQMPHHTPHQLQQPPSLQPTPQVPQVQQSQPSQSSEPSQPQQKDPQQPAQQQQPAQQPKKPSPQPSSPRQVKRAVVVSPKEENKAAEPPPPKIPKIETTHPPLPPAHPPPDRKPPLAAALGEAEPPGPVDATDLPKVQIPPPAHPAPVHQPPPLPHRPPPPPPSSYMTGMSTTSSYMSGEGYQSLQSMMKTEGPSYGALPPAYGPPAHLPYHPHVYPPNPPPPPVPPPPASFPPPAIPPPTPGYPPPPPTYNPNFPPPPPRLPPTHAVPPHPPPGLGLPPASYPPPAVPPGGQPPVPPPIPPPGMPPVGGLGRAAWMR
Method in brief: as §1

HIPK1 = HIPK1 (Homo sapiens, UniProt Q86Z02); conditions: duplicate measurements, Km ATP
Chain of HIPK1 (Q86Z02 whole entry): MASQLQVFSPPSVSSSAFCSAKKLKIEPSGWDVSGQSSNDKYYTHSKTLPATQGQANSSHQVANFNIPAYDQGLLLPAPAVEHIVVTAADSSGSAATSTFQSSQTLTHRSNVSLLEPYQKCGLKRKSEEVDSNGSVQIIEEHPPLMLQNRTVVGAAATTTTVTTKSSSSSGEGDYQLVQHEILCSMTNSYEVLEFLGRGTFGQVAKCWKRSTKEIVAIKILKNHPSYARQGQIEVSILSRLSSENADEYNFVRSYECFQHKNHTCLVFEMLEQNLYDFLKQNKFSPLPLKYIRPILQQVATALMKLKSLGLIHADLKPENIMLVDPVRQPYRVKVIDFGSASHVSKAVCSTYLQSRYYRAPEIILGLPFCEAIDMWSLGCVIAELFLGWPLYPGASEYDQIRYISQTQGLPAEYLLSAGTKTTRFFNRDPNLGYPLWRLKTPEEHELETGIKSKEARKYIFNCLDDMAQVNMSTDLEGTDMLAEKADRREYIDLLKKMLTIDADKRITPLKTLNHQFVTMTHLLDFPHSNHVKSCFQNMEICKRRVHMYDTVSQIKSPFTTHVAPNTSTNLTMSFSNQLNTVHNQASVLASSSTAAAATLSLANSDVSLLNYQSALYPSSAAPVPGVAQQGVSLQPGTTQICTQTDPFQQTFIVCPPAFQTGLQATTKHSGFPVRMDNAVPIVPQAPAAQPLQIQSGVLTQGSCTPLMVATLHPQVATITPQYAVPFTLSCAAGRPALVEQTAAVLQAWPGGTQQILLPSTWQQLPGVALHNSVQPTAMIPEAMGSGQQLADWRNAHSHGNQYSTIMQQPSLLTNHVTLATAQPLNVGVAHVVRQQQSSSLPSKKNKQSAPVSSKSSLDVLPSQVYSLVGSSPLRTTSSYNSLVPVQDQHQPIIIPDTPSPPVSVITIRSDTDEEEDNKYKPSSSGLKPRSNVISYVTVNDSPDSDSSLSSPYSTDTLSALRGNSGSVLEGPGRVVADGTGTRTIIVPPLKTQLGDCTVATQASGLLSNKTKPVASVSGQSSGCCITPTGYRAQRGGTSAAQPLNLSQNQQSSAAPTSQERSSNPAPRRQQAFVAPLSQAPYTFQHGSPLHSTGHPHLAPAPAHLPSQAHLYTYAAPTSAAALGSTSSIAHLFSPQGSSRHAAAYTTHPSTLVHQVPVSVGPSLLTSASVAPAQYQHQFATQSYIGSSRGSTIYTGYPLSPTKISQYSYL
Method in brief: as §1

IKKe/IKBKE = IKKe/IKBKE (Homo sapiens, UniProt Q14164); conditions: duplicate measurements, Km ATP
Method in brief: as §1

MELK = MELK (Homo sapiens, UniProt Q14680); conditions: duplicate measurements, Km ATP
Method in brief: as §1

PHKg2 = PHKg2 (Homo sapiens, UniProt P15735); conditions: duplicate measurements, Km ATP
Chain of PHKg2 (P15735 whole entry): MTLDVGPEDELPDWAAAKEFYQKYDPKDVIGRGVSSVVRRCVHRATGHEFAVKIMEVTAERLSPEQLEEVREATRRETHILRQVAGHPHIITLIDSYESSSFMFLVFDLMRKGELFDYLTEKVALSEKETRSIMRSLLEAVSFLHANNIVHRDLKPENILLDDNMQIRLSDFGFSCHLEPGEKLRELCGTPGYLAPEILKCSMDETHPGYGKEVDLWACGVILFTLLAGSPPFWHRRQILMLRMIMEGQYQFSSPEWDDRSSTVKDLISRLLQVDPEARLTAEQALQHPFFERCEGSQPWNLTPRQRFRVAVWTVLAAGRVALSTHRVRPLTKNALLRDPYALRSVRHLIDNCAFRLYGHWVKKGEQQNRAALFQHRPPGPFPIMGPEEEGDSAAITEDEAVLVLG
Method in brief: as §1

PKN3/PRK3 = PKN3/PRK3 (Homo sapiens, UniProt Q6P5Z2); conditions: duplicate measurements, Km ATP
Method in brief: as §1

SLK/STK2 = SLK/STK2 (Homo sapiens, UniProt Q9H2G2); conditions: duplicate measurements, Km ATP
Chain of SLK/STK2 (Q9H2G2 whole entry): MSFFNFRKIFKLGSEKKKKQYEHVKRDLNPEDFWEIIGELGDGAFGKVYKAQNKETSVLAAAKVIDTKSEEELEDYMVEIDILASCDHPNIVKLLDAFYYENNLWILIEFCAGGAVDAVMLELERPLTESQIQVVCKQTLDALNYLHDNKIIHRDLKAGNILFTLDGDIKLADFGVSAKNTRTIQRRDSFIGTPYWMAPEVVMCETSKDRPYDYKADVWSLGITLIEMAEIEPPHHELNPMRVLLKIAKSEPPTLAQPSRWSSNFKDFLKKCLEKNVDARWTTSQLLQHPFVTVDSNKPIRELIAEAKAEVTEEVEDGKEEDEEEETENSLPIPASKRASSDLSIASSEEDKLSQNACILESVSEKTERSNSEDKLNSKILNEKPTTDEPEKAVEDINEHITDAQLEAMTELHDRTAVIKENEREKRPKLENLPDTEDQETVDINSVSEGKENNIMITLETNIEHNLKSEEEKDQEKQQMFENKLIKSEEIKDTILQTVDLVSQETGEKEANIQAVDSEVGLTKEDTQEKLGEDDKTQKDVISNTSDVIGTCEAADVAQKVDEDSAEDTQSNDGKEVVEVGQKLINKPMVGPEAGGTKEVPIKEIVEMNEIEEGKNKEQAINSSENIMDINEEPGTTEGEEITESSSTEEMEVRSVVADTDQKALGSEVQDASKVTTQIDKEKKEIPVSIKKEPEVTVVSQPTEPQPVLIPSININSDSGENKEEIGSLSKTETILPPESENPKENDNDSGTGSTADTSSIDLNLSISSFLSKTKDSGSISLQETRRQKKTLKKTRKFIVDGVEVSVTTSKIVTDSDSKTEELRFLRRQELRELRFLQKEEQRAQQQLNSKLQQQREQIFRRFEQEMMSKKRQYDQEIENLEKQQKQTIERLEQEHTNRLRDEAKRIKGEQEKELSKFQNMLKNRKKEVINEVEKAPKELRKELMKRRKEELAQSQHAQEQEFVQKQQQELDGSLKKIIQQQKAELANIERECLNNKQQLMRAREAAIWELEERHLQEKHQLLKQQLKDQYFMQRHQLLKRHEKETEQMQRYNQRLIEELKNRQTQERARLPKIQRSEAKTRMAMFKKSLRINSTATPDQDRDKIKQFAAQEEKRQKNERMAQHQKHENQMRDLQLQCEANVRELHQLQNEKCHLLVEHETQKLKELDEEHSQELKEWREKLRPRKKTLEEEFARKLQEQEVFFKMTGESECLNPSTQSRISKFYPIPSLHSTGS
Method in brief: as §1

SRMS = SRMS (Homo sapiens, UniProt Q9H3Y6); conditions: duplicate measurements, Km ATP
Method in brief: as §1

STK25/YSK1 = STK25/YSK1 (Homo sapiens, UniProt O00506); conditions: duplicate measurements, Km ATP
Method in brief: as §1

TRKA = biological target: T1, TRKA (Homo sapiens, UniProt P04629); conditions: duplicate measurements, Km ATP
T1 construct: gene NTRK1
Method in brief: as §1

TTBK1 = TTBK1 (Homo sapiens, UniProt Q5TCY1); conditions: duplicate measurements, Km ATP
Method in brief: as §1

ULK1 = ULK1 (Homo sapiens, UniProt O75385); conditions: duplicate measurements, Km ATP
Method in brief: as §1

YES/YES1 = YES/YES1 (Homo sapiens, UniProt P07947); conditions: duplicate measurements, Km ATP
Method in brief: as §1

c-Kit = c-Kit (Homo sapiens, UniProt P10721); conditions: duplicate measurements, Km ATP
Chain of c-Kit (P10721 whole entry): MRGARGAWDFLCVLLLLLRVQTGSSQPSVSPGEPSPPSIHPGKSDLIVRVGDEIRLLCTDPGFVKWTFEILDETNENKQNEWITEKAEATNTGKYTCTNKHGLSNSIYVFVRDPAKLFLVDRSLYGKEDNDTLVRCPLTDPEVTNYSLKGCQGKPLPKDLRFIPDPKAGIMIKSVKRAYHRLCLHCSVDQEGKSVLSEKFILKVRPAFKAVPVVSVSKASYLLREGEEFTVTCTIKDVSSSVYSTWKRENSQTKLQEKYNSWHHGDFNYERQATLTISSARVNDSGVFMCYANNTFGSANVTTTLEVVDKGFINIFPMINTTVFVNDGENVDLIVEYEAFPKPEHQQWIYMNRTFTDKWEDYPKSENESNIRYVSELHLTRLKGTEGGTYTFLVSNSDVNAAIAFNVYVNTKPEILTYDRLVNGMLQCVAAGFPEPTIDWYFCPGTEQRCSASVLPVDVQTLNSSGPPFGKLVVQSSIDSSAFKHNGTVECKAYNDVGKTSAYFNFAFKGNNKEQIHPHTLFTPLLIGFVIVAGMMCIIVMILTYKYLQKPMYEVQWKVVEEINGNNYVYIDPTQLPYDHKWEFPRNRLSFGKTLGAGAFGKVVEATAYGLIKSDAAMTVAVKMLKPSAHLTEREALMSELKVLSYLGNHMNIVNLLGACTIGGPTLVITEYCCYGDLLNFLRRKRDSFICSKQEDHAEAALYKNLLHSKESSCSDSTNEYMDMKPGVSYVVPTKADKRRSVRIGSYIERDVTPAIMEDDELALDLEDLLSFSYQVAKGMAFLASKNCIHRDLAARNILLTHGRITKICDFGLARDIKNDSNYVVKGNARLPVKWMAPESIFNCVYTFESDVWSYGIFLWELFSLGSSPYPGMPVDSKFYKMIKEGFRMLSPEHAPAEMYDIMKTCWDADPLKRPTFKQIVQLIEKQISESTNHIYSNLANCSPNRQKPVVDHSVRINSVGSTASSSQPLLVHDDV
Method in brief: as §1

c-MET = c-MET (Homo sapiens, UniProt P08581); conditions: duplicate measurements, Km ATP
Method in brief: as §1

[1] = read-out: % Enzyme Activity (relative to DMSO controls) / TP-0005801 (0.3µM) / Data 1
[2] = read-out: % Enzyme Activity (relative to DMSO controls) / TP-0005801 (0.3µM) / Data 2

Structure (SMILES): COc1cc(N2CCN(C)CC2)c(C)cc1Nc1ncc(Br)c(Nc2cccnc2N(C)C)n1 [TP-5801]
- remaining activity at 0.3 µM (ARK5/NUAK1): 14.2%
- remaining activity at 0.3 µM (ASK1/MAP3K5; [1]): 99%
- remaining activity at 0.3 µM (ASK1/MAP3K5; [2]): 98.6%
- remaining activity at 0.3 µM (BRSK1; [1]): 101%
- remaining activity at 0.3 µM (BRSK1; [2]): 95.8%
- remaining activity at 0.3 µM (CDK17/cyclin Y (PCTK2)): 101%
- remaining activity at 0.3 µM (CDK3/cyclin E; [1]): 98%
- remaining activity at 0.3 µM (CDK3/cyclin E; [2]): 97.7%
- remaining activity at 0.3 µM (CDK9/CYCLIN K; [1]): 108%
- remaining activity at 0.3 µM (CDK9/CYCLIN K; [2]): 105%
- remaining activity at 0.3 µM (HIPK1; [1]): 90.8%
- remaining activity at 0.3 µM (HIPK1; [2]): 89.2%
- remaining activity at 0.3 µM (IKKe/IKBKE; [1]): 99.7%
- remaining activity at 0.3 µM (IKKe/IKBKE; [2]): 94.2%
- remaining activity at 0.3 µM (MELK; [1]): 93.1%
- remaining activity at 0.3 µM (MELK; [2]): 90.3%
- remaining activity at 0.3 µM (PHKg2; [1]): 72.4%
- remaining activity at 0.3 µM (PHKg2; [2]): 71.3%
- remaining activity at 0.3 µM (PKN3/PRK3; [1]): 95.4%
- remaining activity at 0.3 µM (PKN3/PRK3; [2]): 93.7%
- remaining activity at 0.3 µM (SLK/STK2; [1]): 55.6%
- remaining activity at 0.3 µM (SLK/STK2; [2]): 48.5%
- remaining activity at 0.3 µM (SRMS; [1]): 89.9%
- remaining activity at 0.3 µM (SRMS; [2]): 89.5%
- remaining activity at 0.3 µM (STK25/YSK1; [1]): 85.8%
- remaining activity at 0.3 µM (STK25/YSK1; [2]): 80.9%
- remaining activity at 0.3 µM (TRKA; [1]): 93.3%
- remaining activity at 0.3 µM (TRKA; [2]): 82.4%
- remaining activity at 0.3 µM (TTBK1; [1]): 97.2%
- remaining activity at 0.3 µM (TTBK1; [2]): 94%
- remaining activity at 0.3 µM (ULK1; [1]): 49.9%
- remaining activity at 0.3 µM (ULK1; [2]): 49.7%
- remaining activity at 0.3 µM (YES/YES1; [1]): 87.4%
- remaining activity at 0.3 µM (YES/YES1; [2]): 85.4%
- remaining activity at 0.3 µM (c-Kit; [1]): 85.3%
- remaining activity at 0.3 µM (c-Kit; [2]): 85.1%
- remaining activity at 0.3 µM (c-MET; [1]): 104%
- remaining activity at 0.3 µM (c-MET; [2]): 102%
